Measurements as given in patent publication US5679521A, “Steroid 5A-reductases” (priority 1995, dated 1997).

Key:
rat steroid 5α-reductase = target: T1, rat steroid 5α-reductase (Rattus norvegicus, UniProt P24008); test: steroid 5α-reductase activity/inhibition in vitro, homogenates of COS cells expressing rat cDNA (Table III); details: rat enzyme
T1 sequence (P24008 5-259): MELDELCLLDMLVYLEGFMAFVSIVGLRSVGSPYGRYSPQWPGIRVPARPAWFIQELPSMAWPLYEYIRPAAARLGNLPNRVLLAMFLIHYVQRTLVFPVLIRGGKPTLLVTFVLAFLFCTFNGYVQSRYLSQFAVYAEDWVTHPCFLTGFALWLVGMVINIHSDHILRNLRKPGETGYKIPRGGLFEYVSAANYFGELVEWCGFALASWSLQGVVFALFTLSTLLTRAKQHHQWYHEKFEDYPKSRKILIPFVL
Text: (§1) Expression Vector Construction. A rat steroid 5α-reductase cDNA corresponding to nucleotides 1-1962 (see Example 1) was ligated into the pCMV4 expression vector (Andersson et al., 1989b). A human cDNA corresponding to nucleotides 1 to 842 of FIG. 7 was initially ligated into pCMV4. […] After amplification, the product was ligated into pCMV4.
(§2) Expression of Steroid 5α-Reductase 1 cDNAs in COS Cells. Simian COS-M6 cells were transfected as described by Andersson et al. (1989b). The assay of steroid 5α-reductase activity in intact cells was carried out as described in Example 1 except that [^14 C]-labeled steroid dissolved in ethanol were added to the transfected cell medium and subsequent organic extractions were carried out with dichloromethane. TLC and liquid scintillation counting were performed as described in Example 1.
(§3) To assay steroid 5α-reductase activity in vitro, cells were harvested 48 hours after transfection, washed once with phosphate buffered saline and either frozen in liquid N2 or homogenized directly with a Polytron in 10 mM potassium phosphate (pH 7.4), 150 mM KCl and 1 mM EDTA, at a protein concentration of 2 mg/ml. A typical assay contained 10 to 50 μg of cell homogenate protein in 0.5 ml of 0.1M potassium phosphate buffer (pH 6.6, rat enzyme; pH 7.0, human enzyme). Steroids were added in 5 μl ethanol, and the reaction was initiated by the addition of NADPH to a final concentration of 2-5 mM. Incubations were carried out for 10 min at 37° C. and terminated by the addition of 5 ml dichloromethane. Organic execrations and thin-layer chromatography analysis were as described above.
(§4) The apparent Km and Vmax values in this system were determined in vitro with five different steroid substrates (Table III).
(§5) The apparent Ki values were then determined for 4-aza-steroid (4-MA and MK-906) inhibition of 5α-reductases expressed in COS cells. […] The data obtained were analyzed using Dixon plots to determine the type of inhibition and the apparent Ki value (Dixon et al., 1979).
(§6) COS call transfaction, cell homogonate preparation, and enzyme assay were
(§7) carried out as described in Materials and Methods. Each Km value
(§8) represents the average of at least two experiments carried out on
(§9) different days using cell lysates prepared from different transfections.

[1] = target: T2, human steroid 5α-reductase 1 (Homo sapiens, UniProt P18405); test: steroid 5α-reductase activity/inhibition in vitro, homogenates of COS cells expressing human steroid 5α-reductase 1 cDNA (Table III); details: human enzyme
T2 sequence (P18405 1-259): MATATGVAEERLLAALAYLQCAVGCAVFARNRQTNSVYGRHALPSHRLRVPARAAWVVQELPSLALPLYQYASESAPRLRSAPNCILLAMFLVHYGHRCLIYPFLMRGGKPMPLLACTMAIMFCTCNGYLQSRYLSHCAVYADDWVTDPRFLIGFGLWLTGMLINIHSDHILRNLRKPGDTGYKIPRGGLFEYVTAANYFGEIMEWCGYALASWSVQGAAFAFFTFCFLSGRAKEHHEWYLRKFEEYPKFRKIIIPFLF
Text: as §1, §2, §3, §4, §5, §6, §7, §8, §9

[2] = target: T3, cloned rat steroid 5α-reductase (Rattus norvegicus, UniProt P24008); test: substrate specificity / inhibition of cloned rat liver steroid 5α-reductase expressed in Xenopus oocytes; details: for substrate for the cloned enzyme: 5 μM 14C-labeled steroid
T3 sequence (P24008 5-259): T1 sequence (P24008 5-259)
Method: The various steroids and metabolites are identified on the left and right of the autoradiograms: P, progesterone ; 5αP, 5α-dihydroprogesterone; others are as indicated in the legend to FIG. 2. The amount of 5α-reduced metabolites for each substrate is indicated at the bottom of the figure and was determined by liquid scintillation counting after cutting out appropriate zones from the chromatograms.
Steroid 5α-Reductase Enzyme Assay. Stage 5 and 6 oocytes were surgically removed from female Xenopus laevis (NASCO, Fort Atkinson , Wis.) and collagenase-treated as described by Julius et al., (1988). Oocytes were injected with 50-100 nl of RNA (1 μg/μl) as described by Peacock et al. (Peacock et al., 1988). After injection the oocytes were incubated at 19° C. for 24 hours in modified Barth's saline solution (Peacock et al., 1988) containing 1 mg/ml bovine serum albumin (BSA) to allow expression of the injected RNA. Five to ten viable oocytes were then transferred to 1 ml of modified Barth's saline solution containing 5 μM ^14 C-labeled steroid (50 mCi/mmol, Du Pont-New England Nuclear), and incubated at 37° C. for 2-24 h. This temperature-jump protocol is based on the observation that expression of mRNA in Xenopus is maximal a 19° C., whereas rat steroid 5α-reductase expressed in Xenopus has a temperature optima of 37° C. After the 37° C. incubation, the oocytes were homogenized in the incubation medium and steroid was extracted with 10 ml of dichloromethane. The solvent was evaporated under air and the residue was dissolved in 0.1 ml of chloroform/methanol (2:1, v/v) and subjected to thin-layer chromatography using Siica Gel 60 thin-layer chromatography plates (E. merck, 5748-7, Darmstadt, West Germany). The chromatoplates were autoradiographed for 18 hours at -70° C. and the radioactive zones were cut out and subjected to liquid scintillation counting in Complete Counting Cocktail (Research Products International). The identities of the products were determined by comparison to the Rf values of known standards.
The oocytes were then incubated with different radiolabeled steroids for an additional 24 hours and the products formed were analyzed by thin-layer chromatography (TLC).

[3] = substrate: CC(=O)[C@H]1CC[C@H]2[C@@H]3CCC4=CC(=O)CC[C@]4(C)[C@H]3CC[C@]12C; test: cells, lysate or membranes named; details: 0.6 to 20 μM substrate, Lineweaver-Burk, 37.0 °C
Method: (§10) To assay steroid 5α-reductase activity in vitro, cells were harvested 48 hours after transfection, washed once with phosphate buffered saline and either frozen in liquid N2 or homogenized directly with a Polytron in 10 mM potassium phosphate (pH 7.4), 150 mM KCl and 1 mM EDTA, at a protein concentration of 2 mg/ml. A typical assay contained 10 to 50 μg of cell homogenate protein in 0.5 ml of 0.1M potassium phosphate buffer (pH 6.6, rat enzyme; pH 7.0, human enzyme). Steroids were added in 5 μl ethanol, and the reaction was initiated by the addition of NADPH to a final concentration of 2-5 mM. Incubations were carried out for 10 min at 37° C. and terminated by the addition of 5 ml dichloromethane. Organic execrations and thin-layer chromatography analysis were as described above. The formation of 5α-reduced steroid products was linear with respect to protein over a 10 to 50 μg range and with respect to incubation time over a 1 to 30 minute period.

[4] = substrate: C[C@]12CCC(=O)C=C1CC[C@@H]1[C@@H]2CC[C@]2(C)C(=O)CC[C@@H]12; test: cells, lysate or membranes named; details: 0.6 to 20 μM substrate, Lineweaver-Burk, 37.0 °C
Method: as §10

[5] = substrate: C[C@]12CC[C@H]3[C@@H](CCC4=CC(=O)CC[C@@]43C)[C@@H]1CC[C@@H]2O; test: cells, lysate or membranes named; details: 0.6 to 20 μM substrate, Lineweaver-Burk, 37.0 °C
[6] = other: rat enzyme in COS cell homogenate
[7] = other: human enzyme in COS cell homogenate

## C[C@]12CCC(=O)C=C1CC[C@@H]1[C@@H]2[C@@H](O)C[C@@]2(C)[C@H]1CC[C@]2(O)C(=O)CO [Cortisol, cortisol]
Rat steroid 5α-reductase
  activity towards 11β-substituted steroids: very low activities
[1]
  activity towards 11β-substituted steroids: very low activities

## C[C@]12CC[C@H]3[C@@H](CCC4=CC(=O)CC[C@@]43C)[C@@H]1CC[C@@H]2O [Testosterone, testosterone]
[2]; intact rat steroid 5α-reductase RNA in oocytes (FIG. 6A)
  reduction of the testosterone substrate: 67%

## C[C@]12CCC(=O)C=C1CC[C@@H]1[C@@H]2CC[C@]2(C)C(=O)CC[C@@H]12 [Androstenedione, androstenedione]
[2]
  substrate for the cloned enzyme: substrates for the cloned enzyme

## C[C@]12C[C@H](O)[C@H]3[C@@H](CCC4=CC(=O)CC[C@@]43C)[C@@H]1CC[C@@H]2C(=O)CO [Corticosterone, corticosterone]
Rat steroid 5α-reductase
  activity towards 11β-substituted steroids: very low activities
[1]
  activity towards 11β-substituted steroids: very low activities

## CC(=O)[C@H]1CC[C@H]2[C@@H]3CCC4=CC(=O)CC[C@]4(C)[C@H]3CC[C@]12C [Progesterone, progesterone]
[2]
  substrate for the cloned enzyme: substrates for the cloned enzyme

B1: rat steroid 5α-reductase (Rattus norvegicus) (protein)
chain: T1 sequence (P24008 5-259)
[3]; [6]
  Km: 0.5 µM
[4]; [6]
  Km: 2.8 µM
[5]; [6]
  Km: 2.5 µM

B2: human steroid 5α-reductase 1 (Homo sapiens) (protein)
chain: T2 sequence (P18405 1-259)
[3]; [7]
  Km: 0.8 µM
[4]; [7]
  Km: 1.7 µM
[5]; [7]
  Km: 3.6 µM
